According to patent publication US11225482B2, “Dihydropyrrolopyrimidines for the treatment and prophylaxis of hepatitis B virus infection” (Hoffmann-La Roche Inc., priority 2017, dated 2022):

Assays:
[1] = test system: HBsAg; assay: HBsAg assay (CLIA) in HepG2.2.15 cells; type: cell-based, HBV; conditions: Hepatitis B virus, HepG2.2.15, read-out: IC50 (HBsAg assay)
Experimental: (§1) HepG2.2.15 cells (Acs et al. Proc Natl Acad Sci USA, 84, (1987), 4641-4), a constitutively HBV-expressing cell line were cultured in DMEM+Glutamax-I medium (Invitrogen, Carlsbad, Calif., USA), supplemented with 10% fetal bovine serum (Invitrogen) and G418 (Invitrogen) at a final concentration of 200 mg/L and maintained in 5% CO2 at 37° C.
HepG2.2.15 cells were seeded in duplicate into white, 96-well plates at 1.5×10^4 cells/well. The cells were treated with a three-fold serial dilution series of the compounds in DMSO. The final DMSO concentration in all wells was 1% and DMSO was used as no drug control.
The HBsAg chemiluminescence immunoassay (CLIA) kit (Autobio Diagnostics Co., Zhengzhou, China, Catalog number: CL0310-2) was used to measure the levels of secreted HBV antigens semi-quantitatively. For the detection 50 μL/well culture supernatant was used and HBsAg was quantified using HBsAg chemiluminescence immunoassay (CLIA) kit (Autobio Diagnostics Co., Zhengzhou, China, Catalog number: CL0310-2), 50 μL of the supernatant was transferred to the CLIA assay plate and 50 μL of enzyme conjugate reagent was added into each well. The plates were sealed and gently agitated for 1 hour at room temperature. The supernatant-enzyme-mixture was discarded and wells were washed 6 times with 300 μL of PBS. The residual liquid was removed by plating the CLIA plate […] on absorbent tissue paper. 25 μL of substrates A and B were added to each well. Luminance was measured using a luminometer (Mithras LB 940 Multimode Microplate Reader) after 10 minutes incubation. Dose-response curves were generated and the IC50 value was extrapolated by using the E-WorkBook Suite (ID Business Solutions Ltd., Guildford, UK). The IC50 was defined as the compound concentration (or conditioned media log dilution) at which HBsAg secretion was reduced by 50% compared to the no drug control.

[2] = test system: HBV DNA; assay: HBV DNA assay (real-time qPCR/TaqMan) in HepG2.2.15 cells; type: cell-based; conditions: Hepatitis B virus, 144 h, extracellular HBV DNA in supernatant, six days after initial administration, qPCR, read-out: IC50 (Anti HBV DNA production activity)
Experimental: as §1
The assay employs real-time qPCR (TaqMan) to directly measure extracellular HBV DNA copy number in the cell supernatant, HepG2.2.15 cells were plated in 96-well microtiter plates before treatment with complete medium (DMEM, Glutamax, 10% FBS, 1% Penicillin/Streptomycin, 250 μg/mL Genetycin, final DMSO concentration is 1%). Only the interior wells were utilized to reduce “edge effects” observed during cell culture, the exterior wells were filled with complete medium to help minimize sample evaporation. The HepG2.2.15 cells were treated 1 h later with various concentrations of a test compound in duplicate (top concentration used at 5 μM, 2 μM or 0.5 μM according to the HBsAg IC50 observed, with ⅓ successive dilutions (total of 10 dilutions). Six days following the initial administration of the test compound, the cell culture supernatant was collected; DNA extraction was performed by automated system (Magnapure) and then used in a real-time qPCR/TaqMan assay to determine HBV DNA copy numbers. Antiviral activity was calculated from the reduction in HBV DNA levels (IC50).

## Cc1c(C(=O)N2Cc3nc(-c4ncccn4)ncc3C2C)oc2ccccc12 (stereo not drawn) [Example 21, (3-Methylbenzofuran-2-yl)-(5-methyl-2-pyrimidin-2-yl-5,7-dihydropyrrolo[3,4-d]pyrimidin-6-yl)methanone]
[1]
  IC50: 219 nM
[2]
  IC50: 26.2 nM

## Cc1nc(C(=O)N2Cc3nc(-c4ncccn4)ncc3C2C)sc1C (stereo not drawn) [Example 10, (4,5-Dimethylthiazol-2-yl)-(5-methyl-2-pyrimidin-2-yl-5,7-dihydropyrrolo[3,4-d]pyrimidin-6-yl)methanone]
[1]
  IC50: 282 nM
[2]
  IC50: 67.6 nM

## CC1c2cnc(-c3ncccn3)nc2CN1C(=O)c1nn(C)c2ccccc12 (stereo not drawn) [Example 12, (1-Methylindazol-3-yl)-(5-methyl-2-pyrimidin-2-yl-5,7-dihydropyrrolo[3,4-d]pyrimidin-6-yl)methanone]
[1]
  IC50: 158 nM
[2]
  IC50: 5.6 nM

## CC1c2cnc(-c3ncccn3)nc2CN1c1cc(F)cc(N2CC3(COC3)C2)n1 (stereo not drawn) [Example 36, 6-[4-Fluoro-6-(5-Methyl-2-Pyrimidin-2-Yl-5,7-Dihydropyrrolo[3,4-d]Pyrimidin-6-Yl)-2-Pyridyl]-2-Oxa-6-Azaspiro[3.3]Heptane]
[1]
  IC50: 865 nM

## CC1c2cnc(-c3ncccn3)nc2CN1C(=O)c1n[nH]c2ccccc12 (stereo not drawn) [Example 23, 1H-indazol-3-yl-(5-methyl-2-pyrimidin-2-yl-5,7-dihydropyrrolo[3,4-d]pyrimidin-6-yl)methanone]
[1]
  IC50: 232 nM

## COc1cc(F)nc(N2Cc3nc(-c4ccccn4)ncc3C2C)c1 (stereo not drawn) [Example 33, 6-(6-Fluoro-4-methoxy-2-pyridyl)-5-methyl-2-(2-pyridyl)-5,7-dihydropyrrolo[3,4-d]pyrimidine]
[1]
  IC50: 127 nM

## CC1c2cnc(-c3ncccn3)nc2CN1c1cc(N2CCOCC2)cc(F)n1 (stereo not drawn) [Example 42, 4-[2-Fluoro-6-(5-methyl-2-pyrimidin-2-yl-5,7-dihydropyrrolo[3,4-d]pyrimidin-6-yl)-4-pyridyl]morpholine]
[1]
  IC50: 40 nM

## COc1ccc(C(=O)N2Cc3nc(-c4ncccn4)ncc3C2C)cc1 (stereo not drawn) [Example 15, (4-Methoxyphenyl)-(5-methyl-2-pyrimidin-2-yl-5,7-dihydropyrrolo[3,4-d]pyrimidin-6-yl)methanone]
[1]
  IC50: 26100 nM

## COc1cc(F)nc(N2Cc3nc(-c4ncccn4)ncc3C2C)c1 (stereo not drawn) [Example 30, 6-(6-Fluoro-4-methoxy-2-pyridyl)-5-methyl-2-pyrimidin-2-yl-5,7-dihydropyrrolo[3,4-d]pyrimidine]
[1]
  IC50: 50 nM
[2]
  IC50: 6.5 nM

## CC1c2cnc(-c3ncccn3)nc2CN1c1cc(F)cc(F)n1 (stereo not drawn) [Example 31, 6-(4,6-difluoro-2-pyridyl)-5-methyl-2-pyrimidin-2-yl-5,7-dihydropyrrolo[3,4-d]pyrimidine]
[1]
  IC50: 659 nM

## CC1c2cnc(-c3ncccn3)nc2CN1C(=O)c1ccc2ccccc2c1 (stereo not drawn) [Example 19, (5-Methyl-2-pyrimidin-2-yl-5,7-dihydropyrrolo[3,4-d]pyrimidin-6-yl)-(2-naphthyl)methanone]
[1]
  IC50: 7860 nM
